Laboratory results from US4140767A, “Somatostatin analogs” (Merck & Co., Inc., priority 1977, dated 1979).

Assays:
Rat pituicytes = experiment: Growth hormone inhibition in vitro; type: cell-based; conditions: rat pituicytes after 4 days in culture, 4 hours incubation; somatostatin = 1; range in brackets
Experimental: Rat pituicytes were isolated according to the procedures of Vale and Grant "In vitro Pituitary Hormone Secretion Assay for Hypophysiotropic Substances" in Methods in Enzymology. Vo. XXXVII, eds. O'Malley, B. W. and Hardman, J. G. (Academic Press, Inc., New York) pp. 5-93 (1975).
After 4 days in culture, the cells were washed and incubated for 4 hours in Dulbecco-modified Eagle's medium in the presence or absence of graded doses of each analog or somatostatin. The medium was then collected for subsequent growth hormone determination by a double antibody radioimmunoassay for rat growth hormone.
(§1) Doses were randomized between groups of animals (6 rats/group). Potency values were determined by four, six, or 8 point bioassays with somatostatin as the reference standard. Relative potency values were calculated by a relative potency formula for parallel line bioassays as described in Finney, D. J. Statistical Method in Biological Assay (Charles Griffin and Co., Ltd., London) Chap. 4 pp. 99-138 (1964).

plasma glucagon = experiment: Inhibition of glucagon: lowering of portal vein glucagon in anesthetized rats; type: in vivo, rat; conditions: anesthetized male Sprague-Dawley rats, external jugular vein administration, portal vein blood after 5 minutes; somatostatin = 1; range in brackets
Experimental: (§2) The relative potencies of somatostatin analogs on the lowering of plasma insulin and glucagon are determined by the following method:
(§3) Analogs of somatostatin were […] to somatostatin in their ability to lower the levels of portal vein glucagon and insulin in anesthetized rats. Male Sprague-Dawley rats (Charles River CD) weighing 160-200 grams were anesthetized with urethane (150 mg./100 gm.) Saline or peptides were administered via the external jugular vein. After 5 minutes the portal vein was exposed and blood was collected via syringes containing 3 mg. EDTA and placed in chilled tubes containing 100 μl. of Trasylol (obtained from FBA Pharmaceuticals) for subsequent hormone analysis. Plasma levels of glucagon were determined by the method of Faloona, G. R., and Unger, R. H. "Glucagon" in Methods of Hormone Radioimmunoassay, eds. […] Plasma levels of insulin were determined by a modification of the procedure of Herbert, V., Lau, K. S., Gottlieb, C. […]
as §1, with “4 pp. 99-138 (1964).” left out

plasma insulin = experiment: Inhibition of insulin: lowering of portal vein insulin in anesthetized rats; type: in vivo, rat; conditions: anesthetized male Sprague-Dawley rats, external jugular vein administration, portal vein blood after 5 minutes; somatostatin = 1; range in brackets
Experimental: as §2, §3
as §1, with “4 pp. 99-138 (1964).” left out

growth hormone release = experiment: Inhibition of pentobarbital stimulated growth hormone release in vivo; set-up: species or system rat; conditions: rats, sodium pentobarbitol 17 mg./Kg., analog subcutaneously, blood after 15 minutes; somatostatin = 1; range in brackets
Experimental: Somatostatin analogs were compared to somatostain in their ability to inhibit the release of growth hormone in pentobarbital stimulated rats; a modification of the procedure of Brazeau et al. Endocrinology, 94, 184-187 (1974) was empaloyed. Rats were lightly etherized and sodium pentobarbitol (17 mg./Kg.) was injected into the exposed Saphenous vein; somatostatin or analog was simultaneously injected subcutaneously. After 15 minutes the animals were bled via the orbital sinus and blood collected for subsequent growth hormone analysis.
as §1

C[C@H](N)C(=O)NCC(=O)N[C@H]1CSSC[C@@H](C(=O)O)NC(=O)[C@H](CO)NC(=O)[C@H]([C@@H](C)O)NC(=O)[C@H](Cc2ccccc2)NC(=O)[C@H]([C@@H](C)O)NC(=O)[C@H](CCCCN)NC(=O)[C@H](Cc2c[nH]c3ccccc23)NC(=O)[C@H](Cc2ccccc2)NC(=O)[C@H](Cc2ccccc2)NC(=O)[C@H](CC(N)=O)NC(=O)[C@H](CCCCN)NC1=O [Somatostatin]
1: Growth Hormone Inhibition In Vitro; potency relative to somatostatin (Rat pituicytes) | Inhibition of Glucagon; potency relative to somatostatin (plasma glucagon) | Inhibition of Insulin; potency relative to somatostatin (plasma insulin) | Inhibition of Pentobarbital Stimulated Growth Hormone Release In Vivo; potency relative to somatostatin (growth hormone release)
